“Also recorded” adds a separate entry of the source.
Assays:
HT-1080 cells = assay: F-actin staining by fluorescence microscopy; format: cell-based; conditions: human fibrosarcoma cells, 20 μM, 39 h
Description: Detection of acetylated α-tubulin and acetylated histones by immunofluorescence was performed as described in Example 6 above. For determining microtubule stability, A549 cells were treated as indicated, fixed in glutaraldehyde, and stained for acetylated α-tubulin and total α-tubulin in antibody dilution buffer (ADB, Tris-buffered saline (TBS), 0.15 M NaCl, 0.02 M Tris-Cl, pH 7.4, with 2% bovine serum albumin and 0.1% Triton-X 100). For cold-depolymerization, cells were incubated at 4° C. or 37° C. for an additional 90 minutes before fixation. […] For co-localization experiments, biotubacin (50 μM) treated A549 cells were fixed in 3.7% formaldehyde in TBS and processed as for detecting acetylated α-tubulin (See Example 6 above) with biotubacin detected using streptavidin-TR (1:500). HDAC6 was detected using a rabbit polyclonal antibody (1:250-1:750; C.M.G., unpublished data) under the conditions used to detect acetylated α-tubulin (See Example 6 above). Filamentous actin in HT-1080 cells was detected using TR-conjugated phalloidin (1 μg/mL), and depolymerized actin using FITC-conjugated deoxyribonuclease (10 μg/mL), following fixation in 3.7% formaldehyde in TBS. p58 (1:100) in NIH-3T3 cells was detected after fixation in 3.7% formaldehyde in TBS. […]

[1] = test system: microtubules in A549 cells; assay: microtubule stability to nocodazole, cold or calcium depolymerization and repolymerization; format: cell-based, human; conditions: tubacin 2 μM
Description: Detection of acetylated α-tubulin and acetylated histones by immunofluorescence was performed as described in Example 6 above. For determining microtubule stability, A549 cells were treated as indicated, fixed in glutaraldehyde, and stained for acetylated α-tubulin and total α-tubulin in antibody dilution buffer (ADB, Tris-buffered saline (TBS), 0.15 M NaCl, 0.02 M Tris-Cl, pH 7.4, with 2% bovine serum albumin and 0.1% Triton-X 100). For cold-depolymerization, cells were incubated at 4° C. or 37° C. for an additional 90 minutes before fixation. For calcium depolymerization, cells were incubated at 37° C. for 10 minutes in a microtubule-stabilizing buffer (0.2% NP-40, 5 mM MgCl2, 2 mM EGTA, 2 M glycerol, 100 mM PIPES, pH 6.8) with and without the addition of CaCl2 (2 mM) before glutaraldehyde fixation. For co-localization experiments, biotubacin (50 μM) treated A549 cells were fixed in 3.7% formaldehyde in TBS and processed as for detecting acetylated α-tubulin (See Example 6 above) with biotubacin detected using streptavidin-TR (1:500). HDAC6 was detected using a rabbit polyclonal antibody (1:250-1:750; C.M.G., unpublished data) under the conditions used to detect acetylated α-tubulin (See Example 6 above). Filamentous actin in HT-1080 cells was detected using TR-conjugated phalloidin (1 μg/mL), and depolymerized actin using FITC-conjugated deoxyribonuclease (10 μg/mL), following fixation in 3.7% formaldehyde in TBS. p58 (1:100) in NIH-3T3 cells was detected after fixation in 3.7% formaldehyde in TBS. Images for these experiments were collected on a Zeiss LSM510 confocal scanning laser microscope at the appropriate wavelengths using the accompanying software and processed with Adobe Photoshop. Deconvoluted serial images of TSA and DMSO treated A549 cells were obtained by taking sections (8μ) on a Zeiss Axioskop 2 microscope using an AxioCam camera and the accompanying software. Rat hippocampal neuronal cultures were fixed at room temperature for 15 min in phosphate-buffered saline (PBS) containing 4% paraformaldehyde. […]

HDAC6 [2] = target: T1, HDAC6 (Homo sapiens, UniProt Q9UBN7); assay: in vitro enzyme inhibition assay (Fluor de Lys deacetylation) of HDAC1, 4 and 6; format: biochemical; parameters: endogenous in cells; host or cells: A549 cells; conditions: in vitro enzyme inhibition (FIG. 13)
T1 sequence (Q9UBN7 1-1215): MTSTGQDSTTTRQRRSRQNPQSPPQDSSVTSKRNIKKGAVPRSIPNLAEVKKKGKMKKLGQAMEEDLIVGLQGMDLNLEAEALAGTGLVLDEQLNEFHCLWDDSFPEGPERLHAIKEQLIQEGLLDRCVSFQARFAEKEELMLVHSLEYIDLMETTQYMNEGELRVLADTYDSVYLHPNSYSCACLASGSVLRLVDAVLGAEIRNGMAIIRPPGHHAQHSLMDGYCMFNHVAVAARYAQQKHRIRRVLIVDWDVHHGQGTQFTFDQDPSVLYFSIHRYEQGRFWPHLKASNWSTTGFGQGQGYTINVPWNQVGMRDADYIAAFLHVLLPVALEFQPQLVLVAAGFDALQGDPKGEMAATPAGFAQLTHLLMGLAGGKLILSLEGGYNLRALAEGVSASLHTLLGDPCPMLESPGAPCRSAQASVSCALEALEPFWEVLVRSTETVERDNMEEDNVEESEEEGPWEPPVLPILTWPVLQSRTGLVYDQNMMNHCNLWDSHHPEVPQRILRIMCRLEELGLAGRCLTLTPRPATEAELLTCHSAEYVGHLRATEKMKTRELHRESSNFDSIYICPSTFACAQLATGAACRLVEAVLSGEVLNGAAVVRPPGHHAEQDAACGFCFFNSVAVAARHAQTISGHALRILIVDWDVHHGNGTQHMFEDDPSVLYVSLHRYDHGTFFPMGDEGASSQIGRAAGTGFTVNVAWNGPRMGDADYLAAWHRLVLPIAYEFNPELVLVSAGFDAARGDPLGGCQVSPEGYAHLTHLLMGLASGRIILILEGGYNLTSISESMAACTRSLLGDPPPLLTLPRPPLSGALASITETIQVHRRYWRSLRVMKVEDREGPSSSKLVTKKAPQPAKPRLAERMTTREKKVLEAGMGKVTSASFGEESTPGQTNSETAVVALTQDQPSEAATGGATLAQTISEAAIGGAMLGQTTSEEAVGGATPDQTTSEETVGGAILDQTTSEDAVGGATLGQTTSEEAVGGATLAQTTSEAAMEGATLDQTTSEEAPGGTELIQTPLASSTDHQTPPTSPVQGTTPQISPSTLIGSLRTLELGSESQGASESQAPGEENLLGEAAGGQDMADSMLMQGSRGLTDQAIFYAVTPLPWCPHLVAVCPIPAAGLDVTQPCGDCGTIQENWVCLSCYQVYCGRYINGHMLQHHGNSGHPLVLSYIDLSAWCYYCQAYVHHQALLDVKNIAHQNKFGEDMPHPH

HDAC6 [3] = assay: acetylated α-tubulin and HDAC6 immunofluorescence in control (Neo) and HDAC6-overexpressing fibroblasts; format: cell-based, mouse; conditions: tubacin 2 μM, 4 h
Description: All cells were cultured at 37° C. in a humidified incubator supplemented with 5% carbon dioxide. […] Mouse NIH-3T3 wild-type (Neo), HDAC6, HDAC6 double mutant, and HDAC1 overexpressing cells (gift from C. Hubbert, Duke University) were cultured as described (C. Hubbert et al., Nature 417, 455 (2002)1).
Detection of acetylated α-tubulin and acetylated histones by immunofluorescence was performed as described in Example 6 above. […] HDAC6 was detected using a rabbit polyclonal antibody (1:250-1:750; C.M.G., unpublished data) under the conditions used to detect acetylated α-tubulin (See Example 6 above). […] Images for these experiments were collected on a Zeiss LSM510 confocal scanning laser microscope at the appropriate wavelengths using the accompanying software and processed with Adobe Photoshop.

O=C(CCCCCCC(=O)Nc1ccc([C@@H]2OC(c3ccc(CO)cc3)C[C@H](CSc3nc(-c4ccccc4)c(-c4ccccc4)o3)O2)cc1)NO (stereo partly drawn) [tubacin]
F-actin microfilaments / actin stress fibers (HT-1080 cells): increases F-actin microfilaments; also recorded: caused an increase in the abundance of actin stress fibers | polymerization of microtubules after removal of nocodazole ([1]; ITSA1 50 μM): neither tubacin nor ITSA1 (50 μM; 30 minutes) prevents the repolymerization of microtubules; also recorded: neither tubacin nor ITSA1 prevented the polymerization of microtubules | stability of microtubules to depolymerization ([1]; nocodazole 332 nM, cold 4 °C 90 min, or 2 mM CaCl2): No effect of tubacin (2 μM) pre-treatment (4 h) on the stability of microtubules to nocodazole; also recorded: Microtubule depolymerization by nocodazole (332 nM; 5 h) is dominant to the effects of tubacin; also recorded: No effect of tubacin on the stability of microtubules to cold-depolymerization; also recorded: no stabilization of microtubules to any of the depolymerizing conditions tested | selectivity for HDAC6 over HDAC1 and HDAC4 (HDAC6 [2]): 3 fold | co-localization of HDAC6 with acetylated microtubules (HDAC6 [3]; NIH-3T3 (Neo)): Increased co-localization of HDAC6 with acetylated α-tubulin; also recorded: caused an increase in the co-localization of HDAC6 along acetylated microtubules | α-tubulin acetylation in control (Neo) versus HDAC6-overexpressing NIH-3T3 cells (HDAC6 [3]): Decreased α-tubulin acetylation upon tubacin (2 μM) treatment (4 h) of HDAC6 overexpressing compared to control (Neo) NIH-3T3 cells; also recorded: induced an increase in α-tubulin acetylation; also recorded: decreased tubucin-induced α-tubulin acetylation
